Laboratory results taken from patent publication US20070249011A1, “Method for Screening Fungus-Specific Antimicrobial Agent and Kit Therefor” (priority 2004, published 2007).

Experiments:
Format in all cases: cell-based, Saccharomyces cerevisiae
[1] = tested on: ssk1 mutant strain introducing pYES2-HIK1; assay: Reagent sensitivity by plate culture, ssk1 mutant strain introducing pYES2-HIK1; conditions: 25 ppm fludioxonil, 25 ppm iprodione, 50 ppm chloroneb; SG plates, 30° C., 60 hours (FIG. 7A)
Source text: (§1) A suspension of a control yeast cell introducing pYES2-HIK1 therein (uppermost rows), a suspension of a hog1 mutant strain cell introducing pYES2-HIK1 therein (second rows), a suspension of an ssk1 mutant strain cell introducing pYES2-HIK1 therein (third rows), a suspension of a ste11 mutant strain cell introducing pYES2-HIK1 therein (fourth rows), a suspension of a control yeast cell introducing pYES2 therein (fifth rows), a suspension of a hog1 mutant strain cell introducing pYES2-HIK1 therein (sixth rows), a suspension of an ssk1 mutant strain cell introducing pYES2-HIK1 therein (seventh rows), and a suspension of a ste11 mutant strain cell introducing pYES2-HIK1 therein (lowermost rows) were added (5 μl each) dropwise at 9 mm spacings (from the left, 10^7, 10^6, 10^5, and 10^4/ml) in order from the uppermost rows of plates of 90 mm in diameter containing a variety of reagents, followed by culture at 30° C. for 60 hours (or 96 hours for NaCl). […] A suspension of a hog1 mutant strain cell introducing pCLΔ-HOG1 and pYES2-HIK1 therein (uppermost rows), a suspension of a hog1 mutant strain cell introducing pCLΔ and pYES2-HIK1 therein (second rows), a suspension of an ssk1 mutant strain cell introducing pCLΔ-SSK1 and pYES2-HIK1 therein (third rows), and a suspension of an ssk1 mutant strain cell introducing pCLΔ and pYES2-HIK1 therein (lowermost rows) were added (5 μl each) dropwise at 9 mm spacings (from the left, 10 ^7, 10^6, 10^5, and 10^4/ ml) in order from the uppermost rows of plates of 90 mm in diameter containing a variety of reagents, followed by culture at 30° C. for 60 hours (or 96 hours for NaCl). The reagents were added to each SG medium so that 25 ppm fludioxonil, 25 ppm iprodione, 50 ppm chloroneb, and 0.5 M NaCl were contained in order from the second leftmost plate; and
(§2) Reagent sensitivity was analyzed by plate culture and liquid culture. In the plate culture, strains were precultured overnight in 5 ml of SD/-Ura and then collected, followed by washing with 10 ml of SG/-Ura. […]

ATCC201388 [pYES2-HIK1] = assay: Reagent sensitivity by liquid culture (doubling time), HIK1-expressing yeast; conditions: 25 ppm reagent, liquid culture in SG/-Ura (GAL1 expression-inducing conditions), 27° C., 160 rpm, average ± standard deviation
pYES2 transformant = assay: Reagent sensitivity by plate culture, vector-only control yeast
[2] = tested on: strain introducing pYES2-hik1-D1153E; assay: Reagent sensitivity by plate culture, yeast expressing Hik1-D1153E (nonfunctional response regulator domain); conditions: 25 ppm fludioxonil, 25 ppm iprodione, 50 ppm chloroneb; SG plates, 30° C., 72 hours (FIG. 6B)
Description: (§3) The reagents were added to each SG medium so that 25 ppm fludioxonil, 25 ppm iprodione, 50 ppm chloroneb, and 0.5 M NaCl were contained in order from the second leftmost plate;
(§4) Reagent sensitivity was analyzed by plate culture and liquid culture. In the plate culture, strains were precultured overnight in 5 ml of SD/-Ura and then collected, followed by washing with 10 ml of SG/-Ura. The resulting strains were cultured for 8 hours to 10 hours in 10 ml of SG/-Ura, followed by OD600 measurement. They were diluted to 10^7 cells/ml, 10^6 cells/ml, 10^5 cells/ml, and 10^4 cells/ml, and 5 μl each thereof was added dropwise onto SG/-Ura plates supplemented with a variety of reagents, and cultured for 60 hours to 240 hours. In the liquid culture, strains were precultured overnight in 5 ml of SD/-Ura and then collected, followed by washing with 10 ml of SG/-Ura. The resulting strains were cultured for 8 hours to 10 hours in 10 ml of SG/-Ura, followed by OD600 measurement. They were added at OD600=0.01 to 300-ml Erlenmeyer flasks accommodating 50 ml of SG/-Ura containing a variety of reagents. After shaking by spinning at 160 rpm and 27° C., sampling was performed after 12, 15, 18, 21, 24, 33, 36, and 39 hours, followed by OD600 measurement. A growth curve was created to calculate a doubling time.
(§5) (2) Mutagenized HIK1 was prepared with Mutan-Express Km kit (TAKARA SHUZO) using synthetic DNAs for mutagenesis (HK-H736V: 5′-[…]-3′ (SEQ ID NO: 2) and HK-D1153E: 5′-[…]-3′ (SEQ ID NO: 3)). Each mutagenized HIK1 was cloned into the BamHI site of pYES2 to prepare pYES2-hik1-H736V and […]. […]

[3] = tested on: ste11 mutant strain introducing pYES2-HIK1; assay: Reagent sensitivity by plate culture, ste11 mutant strain introducing pYES2-HIK1; conditions: 25 ppm fludioxonil, 25 ppm iprodione, 50 ppm chloroneb; SG plates, 30° C., 60 hours (FIG. 7A)
Source text: as §1, §2

ATCC201388 [pYES2] = assay: Reagent sensitivity by liquid culture (doubling time), vector-only control yeast; conditions: 25 ppm reagent, liquid culture in SG/-Ura (GAL1 expression-inducing conditions), 27° C., 160 rpm, average ± standard deviation
[4] = tested on: hog1 mutant strain introducing pYES2-HIK1; assay: Reagent sensitivity by plate culture, hog1 mutant strain introducing pYES2-HIK1; conditions: 25 ppm fludioxonil, 25 ppm iprodione, 50 ppm chloroneb; SG plates, 30° C., 60 hours (FIG. 7A)
Source text: as §1, §2

pYES2-HIK1 transformant = assay: Reagent sensitivity by plate culture, HIK1-expressing yeast; conditions: for concentration at which the effect was saturated / growth inhibition in the presence of the reagent: SG plates; for concentration at which the effect was saturated: GAL1 expression-inducing conditions (FIG. 5B); for growth inhibition in the presence of the reagent: GAL1 expression-inducing conditions, 30° C., 60 hours, 5-100 ppm (FIG. 5B)
[5] = tested on: strain introducing pYES2-hik1-H736V; assay: Reagent sensitivity by plate culture, yeast expressing Hik1-H736V (nonfunctional histidine kinase domain); conditions: 25 ppm fludioxonil, 25 ppm iprodione, 50 ppm chloroneb; SG plates, 30° C., 72 hours (FIG. 6B)
Description: as §3, §4, §5

[6] = SG plates, GAL1 expression-inducing conditions, 30° C., 60 hours, 5-100 ppm (FIG. 5B)
[7] = all the strains (control, hog1, ssk1, ste11 mutant) introducing pYES2, 25 ppm fludioxonil, 25 ppm iprodione, 50 ppm chloroneb (FIG. 7A)

COc1cc(Cl)c(OC)cc1Cl [Chloroneb, chloroneb]
sensitivity to the reagent [1]: did not exhibit sensitivity | doubling time (ATCC201388 [pYES2-HIK1]): 2.90 ± 0.11 h | doubling time (ATCC201388 [pYES2-HIK1]; listed as chloroneb): 2.90 h | sensitivity to the reagent (pYES2 transformant; [6]): no sensitivity | sensitivity to the reagent (pYES2 transformant; [7]): no sensitivity | sensitivity to the reagent [2]: hardly exhibited sensitivity | sensitivity to the reagent [3]: exhibited sensitivity | doubling time (ATCC201388 [pYES2]): 2.17 ± 0.08 h | doubling time (ATCC201388 [pYES2]; listed as chloroneb): around 2.2 hours | sensitivity to the reagent [4]: did not exhibit sensitivity | concentration at which the effect was saturated (pYES2-HIK1 transformant): 50 ppm | growth inhibition in the presence of the reagent (pYES2-HIK1 transformant): exhibited growth inhibition | sensitivity to the reagent [5]: hardly exhibited sensitivity

N#Cc1c[nH]cc1-c1cccc2c1OC(F)(F)O2 [Fludioxonil, fludioxonil]
sensitivity to the reagent [1]: did not exhibit sensitivity | doubling time (ATCC201388 [pYES2-HIK1]): 4.25 ± 0.20 h | doubling time (ATCC201388 [pYES2-HIK1]; listed as fludioxonil): 4.25 h | sensitivity to the reagent (pYES2 transformant; [6]): no sensitivity | sensitivity to the reagent (pYES2 transformant; [7]): no sensitivity | sensitivity to the reagent [2]: hardly exhibited sensitivity | sensitivity to the reagent [3]: exhibited sensitivity | doubling time (ATCC201388 [pYES2]): 2.25 ± 0.06 h | doubling time (ATCC201388 [pYES2]; listed as fludioxonil): around 2.2 hours | sensitivity to the reagent [4]: did not exhibit sensitivity | concentration at which the effect was saturated (pYES2-HIK1 transformant): 5 ppm | growth inhibition in the presence of the reagent (pYES2-HIK1 transformant): exhibited growth inhibition | sensitivity to the reagent [5]: hardly exhibited sensitivity

CC(C)NC(=O)N1CC(=O)N(c2cc(Cl)cc(Cl)c2)C1=O [Iprodione, iprodione]
sensitivity to the reagent [1]: did not exhibit sensitivity | doubling time (ATCC201388 [pYES2-HIK1]): 3.12 ± 0.10 h | doubling time (ATCC201388 [pYES2-HIK1]; listed as iprodione): 3.12 h | sensitivity to the reagent (pYES2 transformant; [6]): no sensitivity | sensitivity to the reagent (pYES2 transformant; [7]): no sensitivity | sensitivity to the reagent [2]: hardly exhibited sensitivity | sensitivity to the reagent [3]: exhibited sensitivity | doubling time (ATCC201388 [pYES2]): 2.12 ± 0.06 h | doubling time (ATCC201388 [pYES2]; listed as iprodione): around 2.2 hours | sensitivity to the reagent [4]: did not exhibit sensitivity | concentration at which the effect was saturated (pYES2-HIK1 transformant): 25 ppm | growth inhibition in the presence of the reagent (pYES2-HIK1 transformant): exhibited growth inhibition | sensitivity to the reagent [5]: hardly exhibited sensitivity

C[C@@H]1C[C@@H]([C@H](O)CC2CC(=O)NC(=O)C2)C(=O)[C@@H](C)C1 [cycloheximide]
difference in sensitivity between the pYES2-HIK1 transformant and the pYES2 transformant (pYES2-HIK1 transformant; expression-inducing conditions, 0.25 ppm, cultured for 240 hours (FIG. 5B)): No difference in sensitivity
